Data published in patent US9247759B2, “Identification of human T2R receptors that respond to bitter compounds that elicit the bitter taste in compositions, and the use thereof in assays to identify compounds that inhibit (block) bitter taste in compositions and use thereof” (SENOMYX, INC., priority 2007, dated 2016).
Where two headings read alike, the source gives them in different places.

What was measured:
hT2R9 = hT2R9 (Homo sapiens (Human), UniProt Q9NYW1); test: hT2R panel inhibition, transient HEK293 G16g44, agonist Ofloxacin 1 mM; type: cell-based; settings: HEK293, compound at 25 μM; receptor activated to EC80 with the corresponding agonist; read-out: screening result against bitter receptor 9
hT2R9, sequence (Q9NYW1 whole entry): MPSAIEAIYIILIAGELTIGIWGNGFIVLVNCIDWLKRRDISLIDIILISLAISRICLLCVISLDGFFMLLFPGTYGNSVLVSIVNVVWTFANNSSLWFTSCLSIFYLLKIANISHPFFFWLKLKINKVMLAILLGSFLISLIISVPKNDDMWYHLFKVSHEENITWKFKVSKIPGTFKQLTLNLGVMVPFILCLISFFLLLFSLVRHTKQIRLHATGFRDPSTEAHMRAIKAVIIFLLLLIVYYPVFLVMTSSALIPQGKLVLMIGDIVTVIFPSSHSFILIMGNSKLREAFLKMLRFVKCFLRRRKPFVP
Experimental: Specifically, in order to evaluate the inhibitory selectivity of the Compound C compound, this compound was tested against 22 human T2Rs which were deorphaned by Senomyx. These receptors and the bitter ligands that activate these human T2Rs are reported in earlier patent applications which are incorporated by reference herein. These 22 human T2Rs are hT2R1, 3, 4, 5, 7, 8, 9, 10, 13, 14, 16, 44, 51, 54, 55, 61, 63, 64, 65, 67, 71 and 75. The amino acid and nucleic acid sequences of all of these T2Rs may be found in these earlier patent applications. These human T2Rs were each individually transiently transfected into HEK293 cells that stably express the promiscuous G protein G16g44 and functional assays were effected using these receptors as disclosed in these same patent applications. […] The ligands were used at EC80 concentration levels. The list of bitter ligands utilized and the tested ligand concentrations are contained in Table 5 of this example.
Relating to the foregoing, FIG. 5 contains experimental results wherein Compound C was tested with different agonist compounds. The inhibition activity is represented by the reduction of receptor activity in the presence of Compound C. […] These 13 hT2Rs are hT2R3, 7, 10, 14, 16, 44, 51, 55, 61, 63, 64, 65, and 71.

hT2R63 = test: hT2R panel inhibition, transient HEK293 G16g44, agonist Caffeine 1 mM or Andrographolide 100 μM; type: cell-based, human; settings: compound at 25 μM; receptor activated to EC80 with the corresponding agonist
In short: (§1)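 The test compound's selectivity was profiled by challenging each transiently expressed human T2R with its activating bitter ligand at an EC80 concentration, inhibition being the reduction of receptor signalling it produced.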

hT2R44 = test: hT2R panel inhibition, transient HEK293 G16g44, agonist Denatonium 0.5 μM; type: cell-based, human; settings: compound at 25 μM; receptor activated to EC80 with the corresponding agonist
In short: as §1

hT2R51 = hT2R51 (Homo sapiens (Human), UniProt P59533); test: hT2R panel inhibition, transient HEK293 G16g44, agonist Prop 2.5 μM; type: cell-based; settings: HEK293, compound at 25 μM; receptor activated to EC80 with the corresponding agonist; read-out: screening result against bitter receptor 51
hT2R51, sequence (P59533 whole entry): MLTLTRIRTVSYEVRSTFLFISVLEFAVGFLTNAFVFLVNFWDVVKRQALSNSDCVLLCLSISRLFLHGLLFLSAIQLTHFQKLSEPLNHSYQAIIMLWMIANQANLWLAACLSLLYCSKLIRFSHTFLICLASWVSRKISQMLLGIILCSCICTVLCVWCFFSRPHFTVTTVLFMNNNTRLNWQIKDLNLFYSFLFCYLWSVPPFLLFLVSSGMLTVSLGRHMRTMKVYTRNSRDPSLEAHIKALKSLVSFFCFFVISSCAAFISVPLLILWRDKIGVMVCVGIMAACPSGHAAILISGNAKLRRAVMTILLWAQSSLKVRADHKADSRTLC
In short: as §1

hT2R54 = test: hT2R panel inhibition, transient HEK293 G16g44, agonist Ranitidine 5 mM; type: cell-based, human; settings: compound at 25 μM; receptor activated to EC80 with the corresponding agonist
In short: as §1

hT2R64 = hT2R64 (Homo sapiens (Human), UniProt P59538); test: hT2R panel inhibition, transient HEK293 G16g44, agonist Aristolochic Acid 1 μM; type: cell-based; settings: HEK293, compound at 25 μM; receptor activated to EC80 with the corresponding agonist; read-out: screening result against bitter receptor 64
hT2R64, sequence (P59538 whole entry): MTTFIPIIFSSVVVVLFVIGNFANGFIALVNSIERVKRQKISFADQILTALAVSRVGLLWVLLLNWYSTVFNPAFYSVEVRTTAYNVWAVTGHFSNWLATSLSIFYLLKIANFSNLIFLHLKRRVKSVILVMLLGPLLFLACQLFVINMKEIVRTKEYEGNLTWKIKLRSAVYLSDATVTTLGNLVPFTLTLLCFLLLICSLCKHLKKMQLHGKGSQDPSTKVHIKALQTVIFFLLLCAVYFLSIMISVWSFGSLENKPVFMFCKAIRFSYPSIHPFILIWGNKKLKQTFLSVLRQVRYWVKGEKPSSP
In short: as §1

hT2R14 [1] = molecular target: T1, hT2R14 (Homo sapiens (Human), UniProt Q9NYV8); test: hT2R panel inhibition, transient HEK293 G16g44, agonist Aristolochic Acid 2 μM; type: cell-based; settings: HEK293, compound at 25 μM; receptor activated to EC80 with the corresponding agonist; read-out: screening result against bitter receptor 14
T1 sequence (Q9NYV8 whole entry): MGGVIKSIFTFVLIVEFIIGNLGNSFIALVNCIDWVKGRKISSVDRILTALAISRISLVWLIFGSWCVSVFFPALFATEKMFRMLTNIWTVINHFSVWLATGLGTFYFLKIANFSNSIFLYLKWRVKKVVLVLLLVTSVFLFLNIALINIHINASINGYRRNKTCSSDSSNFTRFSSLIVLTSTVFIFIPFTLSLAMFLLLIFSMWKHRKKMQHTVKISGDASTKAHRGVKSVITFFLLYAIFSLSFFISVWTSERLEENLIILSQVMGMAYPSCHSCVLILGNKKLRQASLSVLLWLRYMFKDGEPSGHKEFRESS
In short: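 Each hT2R was transiently transfected into HEK293 cells stably expressing G16g44 and assayed functionally for inhibition of agonist response. Agonists were applied at EC80: andrographolide at 0.5 mM for hT2R8 and aristolochic acid at 2 μM for hT2R14.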

hT2R16 = hT2R16 (Homo sapiens (Human), UniProt Q9NYV7); test: hT2R panel inhibition, transient HEK293 G16g44, agonist Salicin 1 mM; type: cell-based; settings: HEK293, compound at 25 μM; receptor activated to EC80 with the corresponding agonist; read-out: screening result against bitter receptor 16
hT2R16, sequence (Q9NYV7 whole entry): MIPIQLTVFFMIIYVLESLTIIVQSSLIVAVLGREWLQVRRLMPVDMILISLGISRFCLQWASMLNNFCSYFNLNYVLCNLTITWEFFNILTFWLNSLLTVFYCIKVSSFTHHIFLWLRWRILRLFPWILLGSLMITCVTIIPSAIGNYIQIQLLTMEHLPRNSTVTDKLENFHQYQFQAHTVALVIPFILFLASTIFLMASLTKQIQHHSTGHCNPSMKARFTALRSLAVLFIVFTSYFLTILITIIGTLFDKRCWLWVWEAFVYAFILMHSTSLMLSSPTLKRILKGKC
In short: as §1

hT2R4 = hT2R4 (Homo sapiens (Human), UniProt Q9NYW5); test: hT2R panel inhibition, transient HEK293 G16g44, agonist Chloroquine pH6.5 5 mM; type: cell-based; settings: HEK293, compound at 25 μM; receptor activated to EC80 with the corresponding agonist; class symbols; read-out: screening result against bitter receptor 4
hT2R4, sequence (Q9NYW5 whole entry): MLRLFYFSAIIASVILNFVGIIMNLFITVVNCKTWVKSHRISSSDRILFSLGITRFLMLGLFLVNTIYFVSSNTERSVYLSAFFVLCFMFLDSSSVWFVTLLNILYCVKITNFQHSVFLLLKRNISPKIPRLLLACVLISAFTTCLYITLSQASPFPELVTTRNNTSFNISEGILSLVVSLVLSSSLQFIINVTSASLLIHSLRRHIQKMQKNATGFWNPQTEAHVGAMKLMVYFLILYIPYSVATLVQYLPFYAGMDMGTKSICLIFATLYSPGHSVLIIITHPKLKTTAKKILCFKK
In short: as §1

hT2R61 = hT2R61 (Homo sapiens (Human), UniProt P59537); test: hT2R panel inhibition, transient HEK293 G16g44, agonist Aristolochic Acid 25 nM; type: cell-based; settings: HEK293, compound at 25 μM; receptor activated to EC80 with the corresponding agonist; read-out: screening result against bitter receptor 61
hT2R61, sequence (P59537 whole entry): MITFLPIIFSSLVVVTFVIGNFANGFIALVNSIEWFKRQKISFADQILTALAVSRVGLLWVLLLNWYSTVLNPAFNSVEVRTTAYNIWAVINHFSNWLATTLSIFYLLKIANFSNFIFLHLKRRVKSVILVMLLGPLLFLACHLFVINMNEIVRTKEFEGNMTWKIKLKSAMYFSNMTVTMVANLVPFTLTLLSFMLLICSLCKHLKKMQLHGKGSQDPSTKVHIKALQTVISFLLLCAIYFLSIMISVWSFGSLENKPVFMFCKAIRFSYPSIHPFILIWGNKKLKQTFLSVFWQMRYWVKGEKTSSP
In short: as §1

hT2R65 = test: hT2R panel inhibition, transient HEK293 G16g44, agonist Oleuropein 1 mM; type: cell-based, human; settings: compound at 25 μM; receptor activated to EC80 with the corresponding agonist
In short: as §1

hT2R14 [2] = molecular target: T1, hT2R14; test: hT2R14 antagonist high-throughput FLIPR assay, stable cell line with G16g44, agonist aristolochic acid; type: cell-based
In short: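 HEK293 cells stably expressing hT2R14 with chimeric G16g44 were stimulated with aristolochic acid (3 μM), giving 70-80% of maximal receptor activity. Test compounds were added together with the agonist, and antagonism was read as fluorescent calcium signal on FLIPR.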

hT2R55 = test: hT2R panel inhibition, transient HEK293 G16g44, agonist Cinchonine 150 μM; type: cell-based, human; settings: compound at 25 μM; receptor activated to EC80 with the corresponding agonist
In short: as §1

hT2R3 = hT2R3 (Homo sapiens (Human), UniProt Q9NYW6); test: hT2R panel inhibition, transient HEK293 G16g44, agonist Chloroquine pH6.5 50 μM; type: cell-based; settings: HEK293, compound at 25 μM; receptor activated to EC80 with the corresponding agonist; read-out: screening result against bitter receptor 3
hT2R3, sequence (Q9NYW6 whole entry): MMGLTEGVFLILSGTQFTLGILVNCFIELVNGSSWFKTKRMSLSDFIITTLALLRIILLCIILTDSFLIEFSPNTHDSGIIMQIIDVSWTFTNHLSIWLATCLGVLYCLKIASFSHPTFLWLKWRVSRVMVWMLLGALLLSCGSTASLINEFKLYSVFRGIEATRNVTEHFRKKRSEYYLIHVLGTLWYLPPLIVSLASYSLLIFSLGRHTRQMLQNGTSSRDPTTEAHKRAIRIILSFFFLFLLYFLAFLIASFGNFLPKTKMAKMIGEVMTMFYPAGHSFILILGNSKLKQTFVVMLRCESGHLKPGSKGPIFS
In short: as §1

hT2R71 = hT2R71 (Homo sapiens (Human), UniProt P59536); test: hT2R panel inhibition, transient HEK293 G16g44, agonist Picric Acid 10 μM; type: cell-based; settings: HEK293, compound at 25 μM; receptor activated to EC80 with the corresponding agonist; read-out: screening result against bitter receptor 71
hT2R71, sequence (P59536 whole entry): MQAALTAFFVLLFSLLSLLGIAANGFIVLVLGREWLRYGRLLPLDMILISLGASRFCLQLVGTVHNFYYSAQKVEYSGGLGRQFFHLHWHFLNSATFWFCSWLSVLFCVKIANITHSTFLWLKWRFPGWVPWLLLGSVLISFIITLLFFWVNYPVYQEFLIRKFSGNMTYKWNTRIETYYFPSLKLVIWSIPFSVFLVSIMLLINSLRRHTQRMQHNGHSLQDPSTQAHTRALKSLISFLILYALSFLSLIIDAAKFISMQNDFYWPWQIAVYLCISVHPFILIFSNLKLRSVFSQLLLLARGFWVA
In short: as §1

hT2R10 = hT2R10 (Homo sapiens (Human), UniProt Q9NYW0); test: hT2R panel inhibition, transient HEK293 G16g44, agonist Strychnine 50 μM; type: cell-based; settings: HEK293, read-out: screening result against bitter receptor 10, compound at 25 μM; receptor activated to EC80 with the corresponding agonist
hT2R10, sequence (Q9NYW0 whole entry): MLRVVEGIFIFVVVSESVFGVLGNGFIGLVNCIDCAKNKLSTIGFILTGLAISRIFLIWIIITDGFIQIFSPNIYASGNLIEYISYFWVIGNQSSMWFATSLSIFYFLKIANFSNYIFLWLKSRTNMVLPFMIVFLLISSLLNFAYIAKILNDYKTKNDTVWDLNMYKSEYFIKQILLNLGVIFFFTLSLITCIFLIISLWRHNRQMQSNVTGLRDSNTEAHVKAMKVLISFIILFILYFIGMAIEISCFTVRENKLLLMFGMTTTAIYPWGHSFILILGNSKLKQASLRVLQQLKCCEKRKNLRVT

hT2R75 = hT2R75 (Homo sapiens (Human), UniProt P59540); test: hT2R panel inhibition, transient HEK293 G16g44, agonist Strychnine 1 μM; type: cell-based; settings: HEK293, read-out: screening result against bitter receptor 75, compound at 25 μM; receptor activated to EC80 with the corresponding agonist
hT2R75, sequence (P59540 whole entry): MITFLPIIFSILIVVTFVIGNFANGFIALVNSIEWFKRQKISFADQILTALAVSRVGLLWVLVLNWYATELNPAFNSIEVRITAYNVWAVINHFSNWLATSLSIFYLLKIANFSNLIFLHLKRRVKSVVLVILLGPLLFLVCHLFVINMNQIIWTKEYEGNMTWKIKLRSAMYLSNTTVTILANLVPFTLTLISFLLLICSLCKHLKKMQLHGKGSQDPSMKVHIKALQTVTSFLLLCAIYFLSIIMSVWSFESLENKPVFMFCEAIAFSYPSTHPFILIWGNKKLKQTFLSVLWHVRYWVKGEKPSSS

hT2R5 = hT2R5 (Homo sapiens (Human), UniProt Q9NYW4); test: hT2R panel inhibition, transient HEK293 G16g44, agonist Picoline 10 mM; type: cell-based; settings: HEK293, compound at 25 μM; receptor activated to EC80 with the corresponding agonist; read-out: screening result against bitter receptor 5
hT2R5, sequence (Q9NYW4 whole entry): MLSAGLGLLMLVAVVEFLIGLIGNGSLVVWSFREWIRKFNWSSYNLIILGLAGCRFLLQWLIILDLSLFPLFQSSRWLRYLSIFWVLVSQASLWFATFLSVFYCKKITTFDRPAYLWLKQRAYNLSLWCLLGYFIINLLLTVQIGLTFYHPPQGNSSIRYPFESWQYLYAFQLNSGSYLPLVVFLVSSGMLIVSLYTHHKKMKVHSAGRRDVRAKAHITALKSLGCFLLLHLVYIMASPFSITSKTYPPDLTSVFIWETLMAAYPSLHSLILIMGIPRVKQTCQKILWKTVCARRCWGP
In short: as §1

hT2R7 = hT2R7 (Homo sapiens (Human), UniProt Q9NYW3); test: hT2R panel inhibition, transient HEK293 G16g44, agonist Chloroquine pH6.5 10 mM; type: cell-based; settings: HEK293, compound at 25 μM; receptor activated to EC80 with the corresponding agonist; read-out: screening result against bitter receptor 7
hT2R7, sequence (Q9NYW3 whole entry): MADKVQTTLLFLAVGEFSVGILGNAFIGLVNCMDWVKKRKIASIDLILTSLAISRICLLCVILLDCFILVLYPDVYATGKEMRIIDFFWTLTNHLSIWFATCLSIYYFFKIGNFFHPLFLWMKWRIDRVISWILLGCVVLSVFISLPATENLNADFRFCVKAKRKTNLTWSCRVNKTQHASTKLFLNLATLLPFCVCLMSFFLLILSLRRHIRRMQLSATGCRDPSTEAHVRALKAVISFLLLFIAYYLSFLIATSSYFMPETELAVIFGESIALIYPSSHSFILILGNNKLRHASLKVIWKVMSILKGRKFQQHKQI
In short: as §1

hT2R67 = test: hT2R panel inhibition, transient HEK293 G16g44, agonist Andrographolide 5 μM; type: cell-based, human; settings: compound at 25 μM; receptor activated to EC80 with the corresponding agonist
In short: as §1

[3] = read-out: IC50 on hT2R14 bitter receptor

| Structure (SMILES) | inhibition at 25 µM (hT2R9) [%] | screening result against bitter receptor 63 (hT2R63) | screening result against bitter receptor 44 (hT2R44) | inhibition at 25 µM (hT2R51) [%] | screening result against bitter receptor 54 (hT2R54) | inhibition at 25 µM (hT2R64) [%] | inhibition at 25 µM (hT2R14 [1]) [%] | inhibition at 25 µM (hT2R16) [%] | inhibition at 25 µM (hT2R4) [%] | inhibition at 25 µM (hT2R61) [%] | screening result against bitter receptor 65 (hT2R65) | IC50 (hT2R14 [2]; [3]) [µM] | screening result against bitter receptor 55 (hT2R55) | inhibition at 25 µM (hT2R3) [%] | inhibition at 25 µM (hT2R71) [%] | inhibition at 25 µM (hT2R10) [%] | inhibition at 25 µM (hT2R75) [%] | inhibition at 25 µM (hT2R5) [%] | inhibition at 25 µM (hT2R7) [%] | screening result against bitter receptor 67 (hT2R67) | also measured |
| --- | --- | --- | --- | --- | --- | --- | --- | --- | --- | --- | --- | --- | --- | --- | --- | --- | --- | --- | --- | --- | --- |
| CCOc1ccc(CN(Cc2ccco2)S(=O)(=O)c2ccc(C(=O)O)cc2)cc1 [Example 5-3, 4-(N-(4-ethoxybenzyl)-N-(furan-2-ylmethyl)sulfamoyl)benzoic acid] | 20 to 40 | +++ (60% to 80% inhibition = +++) | ++ (40% to 60% inhibition = ++) | 20 to 40 | ++ (40% to 60% inhibition = ++) | > 80 | > 80 | 20 to 40 | 60 to 80 | 40 to 60 | + (20% to 40% inhibition = +) | 3 | ++++ (80% or greater inhibition = ++++) | 40 to 60 | 20 to 40 | 40 to 60 | – | – | – | – | – |
| Cc1ccc(S(=O)(=O)N(Cc2ccccc2)CC2CCC(C(=O)O)CC2)cc1 (stereo not drawn) [Example 5-11, 4-((N-benzyl-4-methylphenylsulfonamido)methyl)cyclohexane-carboxylic acid] | 20 to 40 | +++ (60% to 80% inhibition = +++) | +++ (60% to 80% inhibition = +++) | – | – | 40 to 60 | > 80 | 40 to 60 | 60 to 80 | > 80 | + (20% to 40% inhibition = +) | 0.014 | ++++ (80% or greater inhibition = ++++) | 60 to 80 | 60 to 80 | 40 to 60 | 40 to 60 | 20 to 40 | 40 to 60 | + (20% to 40% inhibition = +) | – |
| COc1ccc(CN(Cc2ccccc2)S(=O)(=O)Cc2ccc(C(=O)O)cc2)cc1 [Example 5-16, 4-((N-benzyl-N-(4-methoxybenzyl)sulfamoyl)methyl)benzoic acid] | 20 to 40 | – | +++ (60% to 80% inhibition = +++) | – | – | > 80 | 20 to 40 | 20 to 40 | 20 to 40 | 60 to 80 | + (20% to 40% inhibition = +) | – | ++++ (80% or greater inhibition = ++++) | 40 to 60 | 40 to 60 | 20 to 40 | 20 to 40 | 20 to 40 | 20 to 40 | – | – |
| COc1ccc(CN(Cc2ccccc2C#N)S(=O)(=O)c2ccc(C(=O)O)cc2)cc1 [Example 5-25, 4-(N-(2-cyanobenzyl)-N-(4-methoxybenzyl)sulfamoyl)benzoic acid] | 20 to 40 | – | +++ (60% to 80% inhibition = +++) | 20 to 40 | +++ (60% to 80% inhibition = +++) | – | > 80 | 40 to 60 | 20 to 40 | – | ++++ (80% or greater inhibition = ++++) | 4.61 | +++ (60% to 80% inhibition = +++) | 60 to 80 | – | 60 to 80 | – | 40 to 60 | 40 to 60 | ++ (40% to 60% inhibition = ++) | – |
| COc1ccccc1CN(Cc1ccc(C(=O)O)cc1)S(=O)(=O)c1ccccc1 [Example 5-100, 4-((N-(2-methoxybenzyl)phenylsulfonamido)methyl) benzoic acid] | 20 to 40 | + (20% to 40% inhibition = +) | +++ (60% to 80% inhibition = +++) | – | + (20% to 40% inhibition = +) | > 80 | 40 to 60 | 20 to 40 | 40 to 60 | 60 to 80 | ++ (40% to 60% inhibition = ++) | – | +++ (60% to 80% inhibition = +++) | 20 to 40 | 60 to 80 | 20 to 40 | 20 to 40 | 20 to 40 | 20 to 40 | – | IC50 (hT2R14 [2]; Table C, read-out: hT2R14 IC50): 1.29 µM |
| COc1cccc(CN(Cc2ccc(C(=O)O)cc2)S(=O)(=O)c2ccccc2)c1 [Example 5-101, 4-((N-(3-methoxybenzyl)phenylsulfonamido)methyl) benzoic acid] | 20 to 40 | +++ (60% to 80% inhibition = +++) | +++ (60% to 80% inhibition = +++) | 40 to 60 | ++ (40% to 60% inhibition = ++) | > 80 | > 80 | 40 to 60 | 40 to 60 | > 80 | +++ (60% to 80% inhibition = +++) | – | +++ (60% to 80% inhibition = +++) | 60 to 80 | 60 to 80 | 60 to 80 | 40 to 60 | 40 to 60 | 60 to 80 | ++ (40% to 60% inhibition = ++) | IC50 (hT2R14 [2]; Table C, read-out: hT2R14 IC50): 0.345 µM |
